Experimental data from patent publication US20250122183A1 (Pfizer Inc., priority 2023, published 2025).

Key:
[1] = biological target: KAT6A Full length enzyme (Homo sapiens (Human), UniProt Q92794); experiment: KAT6A assay (SAMDI-MS acetylation of H3 1-21 peptide); format: biochemical; conditions: Morrison equation fit; replicate number in parentheses; read-out: KAT6A Ki (nM) (replicate number)
[2] = biological target: KAT7+JADE1+EAF6+ING5 4 protein complex (Homo sapiens (Human), UniProt O95251); experiment: KAT7 JADE1 assay (SAMDI-MS acetylation of H3 1-21 peptide); format: biochemical; conditions: Morrison equation fit; replicate number in parentheses; read-out: KAT7 JADE1 Ki (nM) (replicate number)

Sequence of KAT6A Full length enzyme (Q92794 other isoform, or with tags, fused parts or gaps): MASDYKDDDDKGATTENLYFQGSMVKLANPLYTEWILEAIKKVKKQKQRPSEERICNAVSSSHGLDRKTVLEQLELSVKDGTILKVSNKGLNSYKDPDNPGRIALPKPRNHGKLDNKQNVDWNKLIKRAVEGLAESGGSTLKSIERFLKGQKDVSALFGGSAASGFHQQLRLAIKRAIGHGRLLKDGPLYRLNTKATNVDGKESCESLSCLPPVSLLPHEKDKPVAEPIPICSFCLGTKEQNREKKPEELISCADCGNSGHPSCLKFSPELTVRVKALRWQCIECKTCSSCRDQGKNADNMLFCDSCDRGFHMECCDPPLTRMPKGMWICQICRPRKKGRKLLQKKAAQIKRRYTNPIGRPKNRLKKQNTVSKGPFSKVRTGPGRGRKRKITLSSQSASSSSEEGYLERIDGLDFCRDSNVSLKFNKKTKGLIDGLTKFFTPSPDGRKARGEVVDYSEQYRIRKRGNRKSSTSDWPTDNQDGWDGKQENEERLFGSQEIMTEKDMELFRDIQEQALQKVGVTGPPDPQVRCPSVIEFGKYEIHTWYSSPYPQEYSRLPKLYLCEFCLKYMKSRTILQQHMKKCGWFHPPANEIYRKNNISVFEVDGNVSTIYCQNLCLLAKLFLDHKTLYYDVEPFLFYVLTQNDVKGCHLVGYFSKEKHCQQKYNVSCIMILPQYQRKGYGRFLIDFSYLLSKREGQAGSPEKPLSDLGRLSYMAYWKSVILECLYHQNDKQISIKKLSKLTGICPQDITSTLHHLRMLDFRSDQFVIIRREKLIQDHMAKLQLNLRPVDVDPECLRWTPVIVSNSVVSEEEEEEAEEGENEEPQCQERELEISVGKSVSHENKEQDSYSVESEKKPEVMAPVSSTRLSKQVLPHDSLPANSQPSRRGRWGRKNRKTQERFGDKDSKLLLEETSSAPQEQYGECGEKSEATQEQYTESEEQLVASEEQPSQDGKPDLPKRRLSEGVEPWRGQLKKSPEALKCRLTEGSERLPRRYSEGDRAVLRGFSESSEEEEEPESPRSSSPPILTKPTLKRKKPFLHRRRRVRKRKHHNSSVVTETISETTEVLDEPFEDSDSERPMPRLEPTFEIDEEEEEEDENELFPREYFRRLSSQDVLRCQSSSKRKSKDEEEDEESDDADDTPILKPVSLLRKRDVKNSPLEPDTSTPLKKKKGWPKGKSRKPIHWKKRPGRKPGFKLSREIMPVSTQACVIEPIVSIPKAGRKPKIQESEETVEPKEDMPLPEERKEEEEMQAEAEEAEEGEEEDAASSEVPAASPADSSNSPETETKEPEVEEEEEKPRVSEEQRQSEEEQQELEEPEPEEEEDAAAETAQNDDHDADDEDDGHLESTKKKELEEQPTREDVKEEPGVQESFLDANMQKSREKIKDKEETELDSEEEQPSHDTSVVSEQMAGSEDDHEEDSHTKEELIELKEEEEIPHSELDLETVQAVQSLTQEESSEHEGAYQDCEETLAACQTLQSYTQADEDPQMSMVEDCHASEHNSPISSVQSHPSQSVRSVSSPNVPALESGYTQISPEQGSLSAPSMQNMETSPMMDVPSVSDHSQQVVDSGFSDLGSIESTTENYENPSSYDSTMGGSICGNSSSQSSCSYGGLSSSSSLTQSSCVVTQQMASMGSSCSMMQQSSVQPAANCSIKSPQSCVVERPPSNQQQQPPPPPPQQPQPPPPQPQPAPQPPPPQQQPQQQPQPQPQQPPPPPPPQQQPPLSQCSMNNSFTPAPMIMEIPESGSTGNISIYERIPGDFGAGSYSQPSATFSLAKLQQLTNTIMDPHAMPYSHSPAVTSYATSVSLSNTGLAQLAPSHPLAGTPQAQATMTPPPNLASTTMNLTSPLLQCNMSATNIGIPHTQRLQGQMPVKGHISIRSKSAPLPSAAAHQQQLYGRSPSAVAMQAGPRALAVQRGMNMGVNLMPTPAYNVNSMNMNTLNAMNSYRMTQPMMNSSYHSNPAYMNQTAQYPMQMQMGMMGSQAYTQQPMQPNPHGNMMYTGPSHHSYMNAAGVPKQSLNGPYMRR

COc1cc2c(NS(=O)(=O)c3c(OC)cc(C4CN(C5CCOC5)C4)cc3OC)noc2cc1Nc1cc(C2CC2)n[nH]1 (racemic) [Example 187, N-{6-[(3-cyclopropyl-1H-pyrazol-5-yl)amino]-5-methoxy-1,2-benzoxazol-3-yl]-2,6-dimethoxy-4-[1-(oxolan-3-yl)azetidin-3-yl]benzene-1-sulfonamide]
Ki [1]: 2.2 nM | Ki [2]: 13.1 nM

COc1cc2c(NS(=O)(=O)c3c(OC)cc(C4CCCCO4)cc3OC)noc2cc1Nc1cc(C2CC2)n[nH]1 (single isomer, unassigned) [Example 142, N-{6-[(3-cyclopropyl-1 H-pyrazol-5-yl)amino]-5-methoxy-1,2-benzoxazol-3-yl}-2,6-dimethoxy-4-(oxan-2-yl)benzene-1-sulfonamide]
Ki [1]: 0.7 nM | Ki [2]: 6.7 nM

COc1cc2c(NS(=O)(=O)c3c(OC)cc(C4CCN(C)C4)cc3OC)noc2cc1Nc1cc(C2CC2)n[nH]1 (single isomer, unassigned) [Example 147, N-{6-[(3-cyclopropyl-1 H-pyrazol-5-yl)amino]-5-methoxy-1,2-benzoxazol-3-yl}-2,6-dimethoxy-4-(1-methylpyrrolidin-3-yl)benzene-1-sulfonamide]
Ki [1]: 1.6 nM | Ki [2]: 12.1 nM

CCN1CCOC(c2cc(OC)c(S(=O)(=O)Nc3noc4cc(Nc5cc(C6CC6)n[nH]5)c(OC)cc34)c(OC)c2)C1 (single isomer, unassigned) [Example 156, N-{6-[(3-cyclopropyl-1 H-pyrazol-5-yl)amino]-5-methoxy-1,2-benzoxazol-3-yl}-4-(4-ethylmorpholin-2-yl)-2,6-dimethoxybenzene-1-sulfonamide]
Ki [1]: 0.8 nM | Ki [2]: 4 nM

CCN1CCOC(c2cc(OC)c(S(=O)(=O)Nc3noc4cc(Nc5cc(C6CC6)n[nH]5)c(OC)cc34)c(OC)c2)C1 (single isomer, unassigned) [Example 157, N-{6-[(3-cyclopropyl-1 H-pyrazol-5-yl)amino]-5-methoxy-1,2-benzoxazol-3-yl}-4-(4-ethylmorpholin-2-yl)-2,6-dimethoxybenzene-1-sulfonamide]
Ki [1]: 2.5 nM | Ki [2]: 11.6 nM

COc1cc2c(NS(=O)(=O)c3c(OC)cc(C4CCCN([C@@H]5CCOC5)C4)cc3OC)noc2cc1Nc1cc(C2CC2)n[nH]1 (single isomer, unassigned) [Example 158]
Ki [1]: 1.2 nM | Ki [2]: 8.7 nM

COc1cc2c(NS(=O)(=O)c3c(OC)cc(C4CCCN([C@@H]5CCOC5)C4)cc3OC)noc2cc1Nc1cc(C2CC2)n[nH]1 (single isomer, unassigned) [Example 159]
Ki [1]: 1.1 nM | Ki [2]: 7 nM

COc1cc2c(NS(=O)(=O)c3c(OC)cc(C4CCN([C@@H]5CCOC5)C4)cc3OC)noc2cc1Nc1cc(C2CC2)n[nH]1 (single isomer, unassigned) [Example 160]
Ki [1]: 1 nM | Ki [2]: 6.9 nM

COc1cc2c(NS(=O)(=O)c3c(OC)cc(C4CCN([C@@H]5CCOC5)C4)cc3OC)noc2cc1Nc1cc(C2CC2)n[nH]1 (single isomer, unassigned) [Example 161]
Ki [1]: 1.2 nM | Ki [2]: 5.5 nM

COc1cc2c(NS(=O)(=O)c3c(OC)cc(C4CCN([C@H]5CCOC5)C4)cc3OC)noc2cc1Nc1cc(C2CC2)n[nH]1 (single isomer, unassigned) [Example 162]
Ki [1]: 1.2 nM | Ki [2]: 8.9 nM

COc1cc2c(NS(=O)(=O)c3c(OC)cc(C4CCN([C@H]5CCOC5)C4)cc3OC)noc2cc1Nc1cc(C2CC2)n[nH]1 (single isomer, unassigned) [Example 163]
Ki [1]: 1.4 nM | Ki [2]: 8.2 nM

COc1cc2c(NS(=O)(=O)c3c(OC)cc(C4CCCN4CC(F)F)cc3OC)noc2cc1Nc1cc(C2CC2)n[nH]1 (single isomer, unassigned) [Example 165, N-{6-[(3-cyclopropyl-1H-pyrazol-5-yl)amino]-5-methoxy-1,2-benzoxazol-3-yl}-4-[1-(2,2-difluoroethyl)pyrrolidin-2-yl]-2,6-dimethoxybenzene-1-sulfonamide]
Ki [1]: 1.4 nM | Ki [2]: 5 nM

COc1cc2c(NS(=O)(=O)c3c(OC)cc(C4CCCN4CC(F)F)cc3OC)noc2cc1Nc1cc(C2CC2)n[nH]1 (single isomer, unassigned) [Example 166, N-{6-[(3-cyclopropyl-1 H-pyrazol-5-yl)amino]-5-methoxy-1,2-benzoxazol-3-yl}-4-[1-(2,2-difluoroethyl)pyrrolidin-2-yl]-2,6-dimethoxybenzene-1-sulfonamide]
Ki [1]: 1.6 nM | Ki [2]: 8.5 nM

COc1cc2c(NS(=O)(=O)c3c(OC)cc(C4CCCN(CC(F)F)C4)cc3OC)noc2cc1Nc1cc(C2CC2)n[nH]1 (single isomer, unassigned) [Example 167, N-{6-[(3-cyclopropyl-1 H-pyrazol-5-yl)amino]-5-methoxy-1,2-benzoxazol-3-yl}-4-[1-(2,2-difluoroethyl)piperidin-3-yl]-2,6-dimethoxybenzene-1-sulfonamide]
Ki [1]: 0.9 nM | Ki [2]: 4 nM

COc1cc2c(NS(=O)(=O)c3c(OC)cc(C4CCCN(CC(F)F)C4)cc3OC)noc2cc1Nc1cc(C2CC2)n[nH]1 (single isomer, unassigned) [Example 168, N-{6-[(3-cyclopropyl-1 H-pyrazol-5-yl)amino]-5-methoxy-1,2-benzoxazol-3-yl}-4-[1-(2,2-difluoroethyl)piperidin-3-yl]-2,6-dimethoxybenzene-1-sulfonamide]
Ki [1]: 0.8 nM | Ki [2]: 2.7 nM

COc1cc2c(NS(=O)(=O)c3c(OC)cc(C4CCCN(CC(F)(F)F)C4)cc3OC)noc2cc1Nc1cc(C2CC2)n[nH]1 (single isomer, unassigned) [Example 169, N-{6-[(3-cyclopropyl-1 H-pyrazol-5-yl)amino]-5-methoxy-1,2-benzoxazol-3-yl}-2,6-dimethoxy-4-[1-(2,2,2-trifluoroethyl)piperidin-3-yl]benzene-1-sulfonamide]
Ki [1]: 0.5 nM

COc1cc2c(NS(=O)(=O)c3c(OC)cc(C4CCCN(CC(F)(F)F)C4)cc3OC)noc2cc1Nc1cc(C2CC2)n[nH]1 (single isomer, unassigned) [Example 170, N-{6-[(3-cyclopropyl-1 H-pyrazol-5-yl)amino]-5-methoxy-1,2-benzoxazol-3-yl}-2,6-dimethoxy-4-[1-(2,2,2-trifluoroethyl)piperidin-3-yl]benzene-1-sulfonamide]
Ki [1]: 0.4 nM

COc1cc2c(NS(=O)(=O)c3c(OC)cc(C4CCCCN4C)cc3OC)noc2cc1Nc1cc(C2CC2)n[nH]1 (single isomer, unassigned) [Example 171, N-{6-[(3-cyclopropyl-1 H-pyrazol-5-yl)amino]-5-methoxy-1,2-benzoxazol-3-yl}-2,6-dimethoxy-4-(1-methylpiperidin-2-yl)benzene-1-sulfonamide]
Ki [1]: 2.1 nM | Ki [2]: 8.4 nM

COc1cc2c(NS(=O)(=O)c3c(OC)cc(C4CCCCN4C)cc3OC)noc2cc1Nc1cc(C2CC2)n[nH]1 (single isomer, unassigned) [Example 172, N-{6-[(3-cyclopropyl-1 H-pyrazol-5-yl)amino]-5-methoxy-1,2-benzoxazol-3-yl}-2,6-dimethoxy-4-(1-methylpiperidin-2-yl)benzene-1-sulfonamide]
Ki [1]: 4.4 nM | Ki [2]: 34.1 nM

CCN1CCCCC1c1cc(OC)c(S(=O)(=O)Nc2noc3cc(Nc4cc(C5CC5)n[nH]4)c(OC)cc23)c(OC)c1 (single isomer, unassigned) [Example 173, N-{6-[(3-cyclopropyl-1 H-pyrazol-5-yl)amino]-5-methoxy-1,2-benzoxazol-3-yl}-4-(1-ethylpiperidin-2-yl)-2,6-dimethoxybenzene-1-sulfonamide]
Ki [1]: 7.5 nM | Ki [2]: 114 nM

CCN1CCCCC1c1cc(OC)c(S(=O)(=O)Nc2noc3cc(Nc4cc(C5CC5)n[nH]4)c(OC)cc23)c(OC)c1 (single isomer, unassigned) [Example 174, N-{6-[(3-cyclopropyl-1 H-pyrazol-5-yl)amino]-5-methoxy-1,2-benzoxazol-3-yl}-4-(1-ethylpiperidin-2-yl)-2,6-dimethoxybenzene-1-sulfonamide]
Ki [1]: 4.4 nM | Ki [2]: 27.3 nM

COc1cc2c(NS(=O)(=O)c3c(OC)cc(C4CN(C)CCC4(F)F)cc3OC)noc2cc1Nc1cc(C2CC2)n[nH]1 (single isomer, unassigned) [Example 175, N-{6-[(3-cyclopropyl-1 H-pyrazol-5-yl)amino]-5-methoxy-1,2-benzoxazol-3-yl}-4-(4,4-difluoro-1-methylpiperidin-3-yl)-2,6-dimethoxybenzene-1-sulfonamide]
Ki [1]: 0.4 nM | Ki [2]: 1 nM

COc1cc2c(NS(=O)(=O)c3c(OC)cc(C4COCCN4C)cc3OC)noc2cc1Nc1cc(C2CC2)[nH]n1 (single isomer, unassigned) [Example 179, N-{6-[(5-cyclopropyl-1 H-pyrazol-3-yl)amino]-5-methoxy-1,2-benzoxazol-3-yl}-2,6-dimethoxy-4-(4-methylmorpholin-3-yl)benzene-1-sulfonamide]
Ki [1]: 1 nM | Ki [2]: 8.6 nM

CCN1CCCC1c1cc(OC)c(S(=O)(=O)Nc2noc3cc(Nc4cc(C5CC5)[nH]n4)c(OC)cc23)c(OC)c1 (single isomer, unassigned) [Example 190, N-{6-[(5-cyclopropyl-1 H-pyrazol-3-yl)amino]-5-methoxy-1,2-benzoxazol-3-yl}-4-(1-ethylpyrrolidin-2-yl)-2,6-dimethoxybenzene-1-sulfonamide]
Ki [1]: 5.6 nM | Ki [2]: 54.5 nM

CCN1CCCC1c1cc(OC)c(S(=O)(=O)Nc2noc3cc(Nc4cc(C5CC5)[nH]n4)c(OC)cc23)c(OC)c1 (single isomer, unassigned) [Example 191, N-{6-[(5-cyclopropyl-1 H-pyrazol-3-yl)amino]-5-methoxy-1,2-benzoxazol-3-yl}-4-(1-ethylpyrrolidin-2-yl)-2,6-dimethoxybenzene-1-sulfonamide]
Ki [1]: 2.3 nM | Ki [2]: 15.4 nM

COc1cc2c(NS(=O)(=O)c3c(OC)cccc3OC)noc2cc1Nc1cc(C2CC2)nn1C [Example 48, N-{6-[(3-cyclopropyl-1-methyl-1H-pyrazol-5-yl)amino]-5-methoxy-1,2-benzoxazol-3-yl}-2,6-dimethoxybenzene-1-sulfonamide]
Ki [2]: > 12500 nM
